# System: 743489-274-T-PDC complex spheroid viability
# Assay: Anticancer human tumor 743489-274-T-PDC patient-derived renal cell carcinoma cell line growth inhibition
# Conditions: for IC50: curve of first compound; for viability, T/C: stronger effect = lower value
# Summary of the method: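 Multicellular complex spheroids of tumor cells with human endothelial cells (HUVEC) and mesenchymal stem cells; the LSD1 inhibitor iadademstat was combined with standard-of-care or investigational agents. Top concentration at or near clinical Cmax, half-log dilutions; final DMSO ≤0.25%.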
# [1] = second compound 0.1 µM, first compound 0.00949 µM
# [2] = second compound 0.1 µM, first compound 0.03 µM
# [3] = second compound 0.1 µM, first compound 0.0949 µM
# [4] = second compound 0.1 µM, first compound 0.3 µM
# [5] = second compound 0.316 µM, first compound 0.00949 µM
# [6] = second compound 0.316 µM, first compound 0.03 µM
# [7] = second compound 0.316 µM, first compound 0.0949 µM
# [8] = second compound 0.316 µM, first compound 0.3 µM
# [9] = second compound 1 µM, first compound 0.00949 µM
# [10] = second compound 1 µM, first compound 0.03 µM
# [11] = second compound 1 µM, first compound 0.0949 µM
# [12] = second compound 1 µM, first compound 0.3 µM
# [13] = second compound 3.16 µM, first compound 0.00949 µM
# [14] = second compound 3.16 µM, first compound 0.03 µM
# [15] = second compound 3.16 µM, first compound 0.0949 µM
# [16] = second compound 3.16 µM, first compound 0.3 µM
# [17] = second compound 10 µM, first compound 0.00949 µM
# [18] = second compound 10 µM, first compound 0.03 µM
# [19] = second compound 10 µM, first compound 0.0949 µM
# [20] = second compound 10 µM, first compound 0.3 µM
# 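Note: spheroids exposed to compounds for 7 days before readout.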
# 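Throughout, for viability, T/C: 100% = DMSO vehicle control wells.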
compound,measurement,setting,value
COc1cc(C2c3cc4c(cc3C(OC3OC5COC(C)OC5C(O)C3O)C3COC(=O)C23)OCO4)cc(OC)c1O (stereo not given) + NC1CCC(NC2CC2c2ccccc2)CC1,IC50,second compound 0.1 µM,> 3 µM
same,IC50,second compound 0.316 µM,> 3 µM
same,IC50,second compound 1 µM,> 3 µM
same,IC50,second compound 3.16 µM,> 3 µM
same,IC50,second compound 10 µM,> 3 µM
same,"viability, T/C",[1],108%
same,"viability, T/C",[2],119%
same,"viability, T/C",[3],112%
same,"viability, T/C",[4],96.6%
same,"viability, T/C","second compound 0.1 µM, first compound 0.949 µM",106%
same,"viability, T/C","second compound 0.1 µM, first compound 3 µM",85.7%
same,"viability, T/C",[5],105%
same,"viability, T/C",[6],105%
same,"viability, T/C",[7],97.8%
same,"viability, T/C",[8],94.8%
same,"viability, T/C","second compound 0.316 µM, first compound 0.949 µM",91.7%
same,"viability, T/C","second compound 0.316 µM, first compound 3 µM",95.3%
same,"viability, T/C",[9],118%
same,"viability, T/C",[10],121%
same,"viability, T/C",[11],117%
same,"viability, T/C",[12],110%
same,"viability, T/C","second compound 1 µM, first compound 0.949 µM",93.2%
same,"viability, T/C","second compound 1 µM, first compound 3 µM",97.9%
same,"viability, T/C",[13],125%
same,"viability, T/C",[14],113%
same,"viability, T/C",[15],115%
same,"viability, T/C",[16],110%
same,"viability, T/C","second compound 3.16 µM, first compound 0.949 µM",99%
same,"viability, T/C","second compound 3.16 µM, first compound 3 µM",87.9%
same,"viability, T/C",[17],117%
same,"viability, T/C",[18],115%
same,"viability, T/C",[19],112%
same,"viability, T/C",[20],111%
same,"viability, T/C","second compound 10 µM, first compound 0.949 µM",98.6%
same,"viability, T/C","second compound 10 µM, first compound 3 µM",111%
Nc1ccn(C2OC(CO)C(O)C2(F)F)c(=O)n1 (stereo not given) + NC1CCC(NC2CC2c2ccccc2)CC1,IC50,second compound 0.1 µM,> 0.3 µM
same,IC50,second compound 0.316 µM,> 0.3 µM
same,IC50,second compound 1 µM,> 0.3 µM
same,IC50,second compound 3.16 µM,> 0.3 µM
same,IC50,second compound 10 µM,> 0.3 µM
same,"viability, T/C","second compound 0.1 µM, first compound 0.000949 µM",77.8%
same,"viability, T/C","second compound 0.1 µM, first compound 0.003 µM",72.3%
same,"viability, T/C",[1],71.5%
same,"viability, T/C",[2],81.7%
same,"viability, T/C",[3],68.9%
same,"viability, T/C",[4],78.4%
same,"viability, T/C","second compound 0.316 µM, first compound 0.000949 µM",86.3%
same,"viability, T/C","second compound 0.316 µM, first compound 0.003 µM",80%
same,"viability, T/C",[5],74.6%
same,"viability, T/C",[6],79.2%
same,"viability, T/C",[7],73.2%
same,"viability, T/C",[8],69.6%
same,"viability, T/C","second compound 1 µM, first compound 0.000949 µM",68.5%
same,"viability, T/C","second compound 1 µM, first compound 0.003 µM",71.7%
same,"viability, T/C",[9],74.6%
same,"viability, T/C",[10],84.9%
same,"viability, T/C",[11],76.5%
same,"viability, T/C",[12],79.1%
same,"viability, T/C","second compound 3.16 µM, first compound 0.000949 µM",81.5%
same,"viability, T/C","second compound 3.16 µM, first compound 0.003 µM",80%
same,"viability, T/C",[13],85.2%
same,"viability, T/C",[14],78.8%
same,"viability, T/C",[15],76.4%
same,"viability, T/C",[16],68.8%
same,"viability, T/C","second compound 10 µM, first compound 0.000949 µM",91.7%
same,"viability, T/C","second compound 10 µM, first compound 0.003 µM",78.8%
same,"viability, T/C",[17],84.8%
same,"viability, T/C",[18],92.7%
same,"viability, T/C",[19],74.3%
same,"viability, T/C",[20],80.5%
O=C(c1cc(Cc2n[nH]c(=O)c3ccccc23)ccc1F)N1CCN(C(=O)C2CC2)CC1 + NC1CCC(NC2CC2c2ccccc2)CC1,IC50,second compound 0.1 µM,> 10 µM
same,IC50,second compound 0.316 µM,> 10 µM
same,IC50,second compound 1 µM,> 10 µM
same,IC50,second compound 3.16 µM,> 10 µM
same,IC50,second compound 10 µM,> 10 µM
same,"viability, T/C","second compound 0.1 µM, first compound 0.0316 µM",112%
same,"viability, T/C","second compound 0.1 µM, first compound 0.1 µM",111%
same,"viability, T/C","second compound 0.1 µM, first compound 0.316 µM",101%
same,"viability, T/C","second compound 0.1 µM, first compound 1 µM",101%
same,"viability, T/C","second compound 0.1 µM, first compound 3.16 µM",110%
same,"viability, T/C","second compound 0.1 µM, first compound 10 µM",106%
same,"viability, T/C","second compound 0.316 µM, first compound 0.0316 µM",104%
same,"viability, T/C","second compound 0.316 µM, first compound 0.1 µM",106%
same,"viability, T/C","second compound 0.316 µM, first compound 0.316 µM",120%
same,"viability, T/C","second compound 0.316 µM, first compound 1 µM",107%
same,"viability, T/C","second compound 0.316 µM, first compound 3.16 µM",124%
same,"viability, T/C","second compound 0.316 µM, first compound 10 µM",100%
same,"viability, T/C","second compound 1 µM, first compound 0.0316 µM",114%
same,"viability, T/C","second compound 1 µM, first compound 0.1 µM",100%
same,"viability, T/C","second compound 1 µM, first compound 0.316 µM",106%
same,"viability, T/C","second compound 1 µM, first compound 1 µM",110%
same,"viability, T/C","second compound 1 µM, first compound 3.16 µM",111%
same,"viability, T/C","second compound 1 µM, first compound 10 µM",108%
same,"viability, T/C","second compound 3.16 µM, first compound 0.0316 µM",117%
same,"viability, T/C","second compound 3.16 µM, first compound 0.1 µM",129%
same,"viability, T/C","second compound 3.16 µM, first compound 0.316 µM",120%
same,"viability, T/C","second compound 3.16 µM, first compound 1 µM",98.8%
same,"viability, T/C","second compound 3.16 µM, first compound 3.16 µM",100%
same,"viability, T/C","second compound 3.16 µM, first compound 10 µM",113%
same,"viability, T/C","second compound 10 µM, first compound 0.0316 µM",108%
same,"viability, T/C","second compound 10 µM, first compound 0.1 µM",116%
same,"viability, T/C","second compound 10 µM, first compound 0.316 µM",110%
same,"viability, T/C","second compound 10 µM, first compound 1 µM",119%
same,"viability, T/C","second compound 10 µM, first compound 3.16 µM",116%
same,"viability, T/C","second compound 10 µM, first compound 10 µM",89%

# Reference: PubChem BioAssay AID1918942 (Molecular Pharmacology Branch, DTP, NCI, 2023)
